EP0245669B1, “Pharmaceutical preparation for preventing damage to living cells by free radicals, or for increasing the efficacy of organic sulphur compounds, and process for increasing the life span of isolated organs” (Medopharm Arzneimittelwerk Dr. Zillich GmbH & Co., priority 1986, dated 1987)

Experiments:
[1] = test system: Mäuse; experiment: Toxicity of the zinc salts used as radiation protection agents (LD50); type: in vivo
Description: In diesem Beispiel wurde die Toxizität der als Strahlenschutzmittel eingesetzten Zinksalze getestet.
Der LD₅₀-Wert betrug für das Zinkaspartat 55 mg/kg Körpergewicht, für das Zinkchlorid 24 mg/kg Körpergewicht und für das Zinksulfat 45 mg/kg Körpergewicht.

[2] = test system: weiblichen C3H Mäusen; experiment: Radiation protection: survival of mice after gamma irradiation (cobalt-60) following i.p. pretreatment; type: in vivo, Mäuse; settings: for Ueberlebensrate nach Bestrahlung mit 9 Gy Anzahl / Ueberlebensrate nach Bestrahlung mit 10 Gy Anzahl / Ueberlebensrate nach Bestrahlung mit 11 Gy Anzahl / Ueberlebensrate nach Bestrahlung mit 12 Gy Anzahl / Ueberlebensrate nach Bestrahlung mit 13 Gy Anzahl: surviving/irradiated mice; for Ueberlebensrate in %: best result with zinc aspartate alone, 30 days after irradiation; for Ueberleben einer Bestrahlung von 14 Gy: zinc aspartate alone
Excerpt: In den nachfolgenden Beispielen wurde die synergistische Wirkung der durch die erfindungsgemässe Verwendung hergestellten pharmazeutischen Präparate mit organische Schwefelverbindungen enthaltenden Präparaten anhand des Strahlenschutzes getestet und es wurde auch die Strahlenschutzwirkung der Zinkionen enthaltenden Präparate mit bisher bekannten Strahlenschutzpräparaten an Mäusen getestet. Die Versuche wurden mit weiblichen C3H Mäusen (GL. Bomholtgard, Ry, Dänemark) durchgeführt, die 20 bis 22 g wogen. Die Mäuse wurden unter Bedingungen gehalten, wo sie so viel Standard-Nagetierfutter (Nafag Pellts) fressen und so viel Leitungswasser trinken können, wie sie wollten. Die Bestrahlung erfolgte mit Gammastrahlen aus einer Kobalt-60 Quelle. Es wurden unterschiedliche Bestrahlungen vorgenommen, und zwar mit 9 Gy, 10 Gy, 11 Gy, 12 Gy, 13 Gy und 14 Gy.
10 Minuten vor der Bestrahlung, 30 Minuten vor der Bestrahlung oder 120 Minuten vor der Bestrahlung wurde ein durch die erfindungsgemässe Verwendung hergestelltes synergistisch wirkendes pharmazeutisches Präparat, bzw. ein entsprechendes, Zinkionen enthaltendes Strahlenschutzpräparat oder ein aus dem Stand der Technik bekanntes Strahlenschutzpräparat zu Vergleichszwecken durch intraperitoneale Injektion verabreicht.
Bei der Gruppe der Mäuse zu Vergleichszwecken, die ohne Verabreichung eines Strahlenschutzpräparates bestrahlt wurden, erfolgte 10 Minuten vor der Bestrahlung die Verabreichung von destilliertem Wasser. Bei diesen unbehandelten Mäusen überlebten nur 50% der Tiere eine Bestrahlung von 8 Gy, d.h. der LD₅₀-Wert betrug 8 Gy.
Nach den Arbeitsweisen der vorangegangenen Beispiele 1 bis 4, wurden weitere Tests mit den genannten weiblichen Mäusen durchgeführt, und zwar unter Verwendung der angeführten Zinksalze. Die bei diesen Tests erzielten Ergebnisse sind in der nachfolgenden Tabelle I zusammengestellt. Für jede der angewandten Bestrahlungsstärken ist in der Rubrik "Anzahl" diejenige Anzahl der Mäuse angeführt, welche die Bestrahlung überlebten, geteilt durch die Gesamtzahl der Mäuse, welche bestrahlt wurden. Ein entsprechender Wert von 1/10 bedeutet also, dass von 10 bestrahlten Mäusen eine überlebt hatte. In der Spalte mit der Bezeichnung "Prozent", ist die Prozent-Ueberlebensrate angeführt. Bei einer überlebenden Maus pro 10 getesteten Mäusen beträgt diese Ueberlebensrate 10 %.
Zu Vergleichszwecken sind in der nachfolgenden Tabelle III die Ueberlebensraten von Mäusen zusammengestellt, die nach dem in Beispiel 5 beschriebenen Verfahren einer Vorbehandlung mit einem bekannten schwefelhaltigen Strahlenschutzmittel unterworfen worden waren. Orientierende Vorversuche hatten gezeigt, dass diese Strahlenschutzmittel bereits ihre Wirkung verloren hatten, wenn sie zwei Stunden vor der Einwirkung der Bestrahlung verabreicht worden waren. Die Bestrahlung wurde, wie aus der Tabelle ersichtlich ist, zwei Minuten nach der Verabreichung, in den meisten Fällen 10 Minuten nach der Verabreichung, aber auch 30 Minuten, bzw. 120 Minuten nach der Verabreichung durchgeführt. Die Werte deuten darauf hin, dass 30 Minuten nach der Verabreichung die Schutzwirkung schon wieder deutlich nachgelassen hat. Für jede Bestrahlungsstärke ist wiederum die Anzahl der Tiere angeführt, die nach 30 Tagen überlebt haben, geteilt durch die Gesamtzahl der Tiere, die behandelt und bestrahlt worden waren.
Anhand dieses Beispiels soll die synergistische Wirkung von Zinkionen und Schwefelverbindungen bezüglich eines Strahlenschutzes erläutert werden. Es wurde wieder in der gleichen Weise gearbeitet, wie in den vorangegangenen Beispielen 1 bis 3, bzw. 5, und es wurde auch die gleiche Art an weiblichen Mäusen getestet. Die Verabreichung der Zinkionen enthaltenden Lösung und der Lösung der Schwefelverbindung erfolgte entweder nacheinander oder gleichzeitig durch intraperitoneale Injektion.
In allen Fällen wurde die Ueberlebensrate 30 Tage nach der Einwirkung der Bestrahlung bestimmt.

[3] = Floersheim, Agents Actions 16, 580 (1985); cited from earlier work
[4] = 10 mg/kg i.p., 10 min before 9 Gy
[5] = 20 mg/kg i.p., 10 min before 9 Gy
[6] = 20 mg/kg i.p., 10 min before 10 Gy
[7] = 20 mg/kg i.p., 10 min before 11 Gy
[8] = 20 mg/kg i.p., 30 min before 9 Gy
[9] = 20 mg/kg i.p., 30 min before 10 Gy
[10] = 20 mg/kg i.p., 120 min before 9 Gy
[11] = 20 mg/kg i.p., 120 min before 10 Gy
[12] = 30 mg/kg i.p., 10 min before 9 Gy
[13] = 30 mg/kg i.p., 10 min before 10 Gy
[14] = 30 mg/kg i.p., 10 min before 11 Gy
[15] = 30 mg/kg i.p., 10 min before 12 Gy
[16] = 30 mg/kg i.p., 10 min before 13 Gy
[17] = 30 mg/kg i.p., 30 min before 9 Gy
[18] = 30 mg/kg i.p., 30 min before 10 Gy
[19] = 30 mg/kg i.p., 30 min before 11 Gy
[20] = 30 mg/kg i.p., 30 min before 12 Gy
[21] = 30 mg/kg i.p., 30 min before 13 Gy
[22] = 30 mg/kg i.p., 120 min before 9 Gy
[23] = 30 mg/kg i.p., 120 min before 10 Gy
[24] = 30 mg/kg i.p., 120 min before 11 Gy
[25] = 30 mg/kg i.p., 120 min before 12 Gy
[26] = 30 mg/kg i.p., 120 min before 13 Gy
[27] = 40 mg/kg i.p., 10 min before 9 Gy
[28] = 40 mg/kg i.p., 10 min before 10 Gy
[29] = 40 mg/kg i.p., 10 min before 11 Gy
[30] = 40 mg/kg i.p., 10 min before 12 Gy
[31] = 40 mg/kg i.p., 10 min before 13 Gy
[32] = 40 mg/kg i.p., 30 min before 9 Gy
[33] = 40 mg/kg i.p., 30 min before 10 Gy
[34] = 40 mg/kg i.p., 30 min before 11 Gy
[35] = 40 mg/kg i.p., 30 min before 12 Gy
[36] = 40 mg/kg i.p., 30 min before 13 Gy
[37] = 40 mg/kg i.p., 120 min before 9 Gy
[38] = 40 mg/kg i.p., 120 min before 10 Gy
[39] = 40 mg/kg i.p., 120 min before 11 Gy
[40] = 40 mg/kg i.p., 120 min before 12 Gy
[41] = 40 mg/kg i.p., 120 min before 13 Gy

Zink-bis-(DL-hydrogenaspartat) [Zinkaspartat]
LD₅₀-Wert [1]: 55 mg/kg Körpergewicht
Ueberlebensrate nach Bestrahlung mit 9 Gy % [2, 4]: 10%
Ueberlebensrate nach Bestrahlung mit 9 Gy Anzahl [2, 4]: 1/10
Ueberlebensrate nach Bestrahlung mit 9 Gy % [2, 5]: 67%
Ueberlebensrate nach Bestrahlung mit 9 Gy Anzahl [2, 5]: 26/39
Ueberlebensrate nach Bestrahlung mit 10 Gy % [2, 6]: 29%
Ueberlebensrate nach Bestrahlung mit 10 Gy Anzahl [2, 6]: 13/45
Ueberlebensrate nach Bestrahlung mit 11 Gy % [2, 7]: 0%
Ueberlebensrate nach Bestrahlung mit 11 Gy Anzahl [2, 7]: 0/20
Ueberlebensrate nach Bestrahlung mit 9 Gy % [2, 8]: 60%
Ueberlebensrate nach Bestrahlung mit 9 Gy Anzahl [2, 8]: 6/10
Ueberlebensrate nach Bestrahlung mit 10 Gy % [2, 9]: 0%
Ueberlebensrate nach Bestrahlung mit 10 Gy Anzahl [2, 9]: 1/10
Ueberlebensrate nach Bestrahlung mit 9 Gy % [2, 10]: 50%
Ueberlebensrate nach Bestrahlung mit 9 Gy Anzahl [2, 10]: 5/10
Ueberlebensrate nach Bestrahlung mit 10 Gy % [2, 11]: 0%
Ueberlebensrate nach Bestrahlung mit 10 Gy Anzahl [2, 11]: 0/10
Ueberlebensrate nach Bestrahlung mit 9 Gy % [2, 12]: 88%
Ueberlebensrate nach Bestrahlung mit 9 Gy Anzahl [2, 12]: 43/49
Ueberlebensrate nach Bestrahlung mit 10 Gy % [2, 13]: 74^+ %
Ueberlebensrate nach Bestrahlung mit 10 Gy Anzahl [2, 13]: 43/58
Ueberlebensrate nach Bestrahlung mit 11 Gy % [2, 14]: 10%
Ueberlebensrate nach Bestrahlung mit 11 Gy Anzahl [2, 14]: 3/30
Ueberlebensrate nach Bestrahlung mit 12 Gy % [2, 15]: 3%
Ueberlebensrate nach Bestrahlung mit 12 Gy Anzahl [2, 15]: 1/30
Ueberlebensrate nach Bestrahlung mit 13 Gy % [2, 16]: 0%
Ueberlebensrate nach Bestrahlung mit 13 Gy Anzahl [2, 16]: 0/20
Ueberlebensrate nach Bestrahlung mit 9 Gy % [2, 17]: 80%
Ueberlebensrate nach Bestrahlung mit 9 Gy Anzahl [2, 17]: 8/10
Ueberlebensrate nach Bestrahlung mit 10 Gy % [2, 18]: 70%
Ueberlebensrate nach Bestrahlung mit 10 Gy Anzahl [2, 18]: 21/30
Ueberlebensrate nach Bestrahlung mit 11 Gy % [2, 19]: 60%
Ueberlebensrate nach Bestrahlung mit 11 Gy % ([2]; 30 mg/kg i.p., 30 min before 11 Gy, listed as Zink-aspartat): 60^+ %
Ueberlebensrate nach Bestrahlung mit 11 Gy Anzahl [2, 19]: 24/40
Ueberlebensrate nach Bestrahlung mit 12 Gy % [2, 20]: 57%
Ueberlebensrate nach Bestrahlung mit 12 Gy % ([2]; 30 mg/kg i.p., 30 min before 12 Gy, listed as Zink-aspartat): 57^+ %
Ueberlebensrate nach Bestrahlung mit 12 Gy Anzahl [2, 20]: 17/30
Ueberlebensrate nach Bestrahlung mit 13 Gy % [2, 21]: 17%
Ueberlebensrate nach Bestrahlung mit 13 Gy Anzahl [2, 21]: 5/30
Ueberlebensrate nach Bestrahlung mit 9 Gy % [2, 22]: 90^+ %
Ueberlebensrate nach Bestrahlung mit 9 Gy Anzahl [2, 22]: 9/10
Ueberlebensrate nach Bestrahlung mit 10 Gy % [2, 23]: 40%
Ueberlebensrate nach Bestrahlung mit 10 Gy Anzahl [2, 23]: 8/20
Ueberlebensrate nach Bestrahlung mit 11 Gy % [2, 24]: 53%
Ueberlebensrate nach Bestrahlung mit 11 Gy Anzahl [2, 24]: 16/30
Ueberlebensrate nach Bestrahlung mit 12 Gy % [2, 25]: 35%
Ueberlebensrate nach Bestrahlung mit 12 Gy Anzahl [2, 25]: 7/20
Ueberlebensrate nach Bestrahlung mit 13 Gy % [2, 26]: 14%
Ueberlebensrate nach Bestrahlung mit 13 Gy Anzahl [2, 26]: 4/29
Ueberlebensrate nach Bestrahlung mit 9 Gy % [2, 27]: 59%
Ueberlebensrate nach Bestrahlung mit 9 Gy Anzahl [2, 27]: 17/29
Ueberlebensrate nach Bestrahlung mit 10 Gy % [2, 28]: 55%
Ueberlebensrate nach Bestrahlung mit 10 Gy Anzahl [2, 28]: 16/29
Ueberlebensrate nach Bestrahlung mit 11 Gy % [2, 29]: 3%
Ueberlebensrate nach Bestrahlung mit 11 Gy Anzahl [2, 29]: 1/40
Ueberlebensrate nach Bestrahlung mit 12 Gy % [2, 30]: 17%
Ueberlebensrate nach Bestrahlung mit 12 Gy Anzahl [2, 30]: 5/30
Ueberlebensrate nach Bestrahlung mit 13 Gy % [2, 31]: 5%
Ueberlebensrate nach Bestrahlung mit 13 Gy Anzahl [2, 31]: 1/19
Ueberlebensrate nach Bestrahlung mit 9 Gy % [2, 32]: 45%
Ueberlebensrate nach Bestrahlung mit 9 Gy Anzahl [2, 32]: 9/20
Ueberlebensrate nach Bestrahlung mit 10 Gy % [2, 33]: 70%
Ueberlebensrate nach Bestrahlung mit 10 Gy Anzahl [2, 33]: 7/10
Ueberlebensrate nach Bestrahlung mit 11 Gy % [2, 34]: 50%
Ueberlebensrate nach Bestrahlung mit 11 Gy Anzahl [2, 34]: 5/10
Ueberlebensrate nach Bestrahlung mit 12 Gy % [2, 35]: 30%
Ueberlebensrate nach Bestrahlung mit 12 Gy Anzahl [2, 35]: 3/10
Ueberlebensrate nach Bestrahlung mit 13 Gy % [2, 36]: 24^+ %
Ueberlebensrate nach Bestrahlung mit 13 Gy Anzahl [2, 36]: 7/29
Ueberlebensrate nach Bestrahlung mit 9 Gy % [2, 37]: 50%
Ueberlebensrate nach Bestrahlung mit 9 Gy Anzahl [2, 37]: 5/10
Ueberlebensrate nach Bestrahlung mit 10 Gy % [2, 38]: 50%
Ueberlebensrate nach Bestrahlung mit 10 Gy Anzahl [2, 38]: 5/10
Ueberlebensrate nach Bestrahlung mit 11 Gy % [2, 39]: 10%
Ueberlebensrate nach Bestrahlung mit 11 Gy Anzahl [2, 39]: 1/10
Ueberlebensrate nach Bestrahlung mit 12 Gy % [2, 40]: 0%
Ueberlebensrate nach Bestrahlung mit 12 Gy Anzahl [2, 40]: 0/10
Ueberlebensrate nach Bestrahlung mit 13 Gy % [2, 41]: 5%
Ueberlebensrate nach Bestrahlung mit 13 Gy Anzahl [2, 41]: 1/19
Ueberlebensrate in % ([2]; 8 Gy): 100%
Ueberlebensrate in % ([2]; 9 Gy): 90%
Ueberlebensrate in % ([2]; 10 Gy): 74%
Ueberlebensrate in % ([2]; 11 Gy): 60%
Ueberlebensrate in % ([2]; 12 Gy): 57%
Ueberlebensrate in % ([2]; 13 Gy): 24%
Ueberlebensrate in % ([2]; 14 Gy): 0%
Strahlenschutzwirkung ([2]; comparison with Zinkchlorid and Zinksulfat): Besonders vorteilhaft
Ueberleben einer Bestrahlung von 14 Gy ([2]; 20 mg/kg body weight, 14 Gy): nicht überlebten
Ueberleben einer Bestrahlung von 14 Gy ([2]; 30 mg/kg body weight, 14 Gy): nicht überlebten
akute Toxizität von Aethanol [3]: vermindert
